US8686039B2, “Aqueous nanoemulsion composition containing conjugated linoleic acid” (Hwail Pharmaceutical Co., Ltd., priority 2009, dated 2014)

Legend:
[1] = tested on: leptin secreted from adipocytes; experiment: Leptin secretion (ELISA); type: cell-based, mouse; conditions: 10 μg/mL, FIG. 8
Description: 3T3-L1 pre-adipocytes were cultured in Dulbecco's Modified Eagle's Medium (DMEM) containing 10% fetal bovine serum, 100 unit/mL penicillin and 10 μg/mL streptomycin at 37° C., 5% CO2 incubator. When 70 to 80% of cells were confluent, cells were pre-differentiated with DMEM containing dexamethazone, pioglitazone, IBMX (3-isobutyl-1-methylxanthin), insulin and FBS which are differentiation inducers, and then were differentiated with DMEM containing insulin, pioglitazone and FBS. After differentiation, lipids were matured with growth medium containing 10% FBS and insulin. Samples were dissolved in DMSO and treated in 10 μg/mL of the final concentration. An experiment was carried out to check whether the secretion amount of leptin, which is known as an appetite-related hormone, is regulated. The amount of leptin secreted from adipocytes was measured by enzyme-linked immunosorbent assay (ELISA) on media collected after treatment of adipocytes with sample. 100 μl of rabbit anti-mouse leptin IgG was aliquoted into an ELISA plate. […] Color development was elicited by the use of alkaline phosphatase conjugated substrate kit, and then absorbance at 490 nm was measured by an ELISA reader (SUNRISE, TECAN, Austria). […]

[2] = tested on: male Sprague-Dawley rats; experiment: Liver tissue lipid content in rats fed experimental diet; type: in vivo; conditions: HF diet + 2% test material, 5 weeks, vs HFD group, FIG. 12
Description: (§1) 28 male Sprague-Dawley rats (5 weeks, 145±5 g) were purchased from the Orient Company (Korea) as experimental animals. Rats were adapted with a lab-chow diet in pellet form for a week. Other obesity-induction groups except the normal group (NC) were fed high fat diet ad libitum for 5 weeks to induce obesity, and then rats were divided into four groups (7 rats per group) including the normal group and bred for 5 weeks as represented in FIG. 13.
AIN-76 diet (Teklad, USA) was used as a base of the experimental diet. Test materials were added at the level of 2% of high fat diet. In the CLA group and N-CLA group, 2% of CLA and N-CLA were added, respectively, while reducing corn oil. Experimental diet and water were supplied ad libitum. […] Body weight and the amount of diet intake were measured at constant time at 2-day intervals during the overall experimental period. Feed efficiency ratio (FER) was calculated by dividing the amount of body weight gain during the experimental period with the amount of diet intake during the same period, and the results are represented in Table 16.
(§2) After breeding, rats were fasted for 12 hours and then primarily anesthetized with ether. […] Liver was isolated, collected, rapidly frozen in liquid nitrogen and stored at −70° C. until sample analysis for measurement of enzyme activity and lipid quantification. […]

[3] = tested on: male Sprague-Dawley rats; experiment: Serum cholesterol and neutral lipid in rats fed experimental diet; type: in vivo; conditions: HF diet + 2% test material, 5 weeks, FIG. 11
Description: as §1
(§3) AIN-76 diet (Teklad, USA) was used as a base of the experimental diet. Test materials were added at the level of 2% of high fat diet. In the CLA group and N-CLA group, 2% of CLA and N-CLA were added, respectively, while reducing corn oil. Experimental diet and water were supplied ad libitum. During the breeding period, the experimental diets were kept in a 4° C. refrigerator. Each of the animals was placed in an empty cage under a specific environmental condition, at 25±2° C. with a relative humidity of 60±5%, a lighting cycle of 12 hr light/12 hr dark. Body weight and the amount of diet intake were measured at constant time at 2-day intervals during the overall experimental period. Feed efficiency ratio (FER) was calculated by dividing the amount of body weight gain during the experimental period with the amount of diet intake during the same period, and the results are represented in Table 16.
as §2
Quantification of total serum cholesterol was performed by using a test solution (Asanpharm Co., Korea) utilizing Allain et al. (1974)'s enzyme method. […] Thus, to quantify both CE and free cholesterol, CE was converted into fatty acid and free cholesterol by cholesterol esterase. […] H2O2 was mixed with peroxidase, phenol and 4-amino-antipyrine to emit red color, and then absorbance at 500 nm was measured. […]
The content of HDL-cholesterol was measured with kit reagent (Asanpharm Co., Korea). […]

[4] = tested on: male Sprague-Dawley rats; experiment: Organ and white adipose tissue weight in rats fed experimental diet; type: in vivo; conditions: HF diet + 2% test material, 5 weeks
Description: as §1, §3
After breeding, rats were fasted for 12 hours and then primarily anesthetized with ether. […] Collected blood was centrifuged at 3,000×g, 4° C. for 15 minutes to obtain serum, and then obtained serum was stored at −70° C. until sample analysis. Organ tissues (liver, heart, kidney, epididymal white adipose tissue and perirenal white adipose tissue) of the experimental animals were washed with PBS (phosphate buffered saline) several times, and then weighed after removing surface moisture. Liver was isolated, collected, rapidly frozen in liquid nitrogen and stored at −70° C. until sample analysis for measurement of enzyme activity and lipid quantification. The results of measuring the weight of epididymal white adipose tissue and perirenal white adipose tissue per unit body weight are represented in FIG. 10.

[5] = tested on: male Sprague-Dawley rats; experiment: Body weight, diet intake and FER in high fat diet obesity-induced rats; type: in vivo; conditions: HF diet + 2% test material
Description: as §1, §3

[6] = tested on: 3T3-L1 pre-adipocytes; experiment: Glycerol quantification (free glycerol reagent); type: cell-based; conditions: 10 μg/mL, medium after 24 hours treatment, FIG. 7
Description: (§4) 3T3-L1 pre-adipocytes were cultured in Dulbecco's Modified Eagle's Medium (DMEM) containing 10% fetal bovine serum, 100 unit/mL penicillin and 10 μg/mL streptomycin at 37° C., 5% CO2 incubator. When 70 to 80% of cells were confluent, cells were pre-differentiated with DMEM containing dexamethazone, pioglitazone, IBMX (3-isobutyl-1-methylxanthin), insulin and FBS which are differentiation inducers, and then were differentiated with DMEM containing insulin, pioglitazone and FBS. After differentiation, lipids were matured with growth medium containing 10% FBS and insulin. Samples were dissolved in DMSO and treated in 10 μg/mL of the final concentration.
Glycerol was quantified with an enzyme reaction method by using free glycerol reagent (Sigma, USA). 10 μl of medium, collected after treatment of cells with sample for 24 hours was added to 0.8 mL of Free glycerol reagent which was pre-warmed at 37° C., and then the reaction of the mixture was carried out in 37° C. water bath for 5 minutes. For quantification of glycerol, standard glycerol (25 μg/10 μl) was reacted in the same manner as above, and then absorbance at 540 nm was measured. The content of glycerol was calculated with the following formula.

[7] = tested on: 3T3-L1 pre-adipocytes; experiment: Lipolysis effect (Oil red O staining, neutral lipids); type: cell-based; conditions: 10 μg/mL, 8th day after differentiation, vs control group, FIGS. 4 and 5
Description: as §4
1×10^5 cells were dispensed into each well of 6-well plate and differentiated. On the 8th day after differentiation, media were removed, and cells were washed twice with ice-cold PBS. Cells were fixed with 10% formalin at room temperature for 1 hour, stained with 0.2 Oil red O (in isoprophanol) for 30 minutes, and then washed with distilled water. Isopropanol was added thereto to dissolve oil droplets, and then the content of neutral lipids was measured as absorbance at 490 nm. The results are represented in FIGS. 4 and 5.

[8] = tested on: 3T3-L1 pre-adipocytes; type: cell-based; conditions: mouse, 24 h, 10 μg/mL
Description: as §4
1×10^4 pre-adipocytes were dispensed into each well of 96-well plate, and each sample was treated. Then cells were incubated at 37° C., 5% CO2 incubator for 24 hours. After 24 hours, MTT (in phosphate buffered saline, final concentration was […]) was treated, and then cells were incubated for 4 hours. Formed formazan crystal was dissolved with DMSO:ethanol (1:1) and absorbance at 540 nm was measured by a microplate reader (SUNRISE, TECAN, Austria). Cell viability was determined by the ratio of absorbance value of sample treating group to absorbance value of control group, and the results are represented in FIG. 3. […] Thus, there is no statistically significant difference from that of the control group.

[9] = tested on: 3T3-L1 pre-adipocytes; experiment: Adipogenesis inhibitory effect (Oil red O staining); type: cell-based; conditions: Mus musculus, 10 μg/mL, treated with MDI medium 48 hours, 8th day after differentiation, FIG. 6, read-out: Content of neutral lipids decreased compared with the control group (adipogenesis inhibitory effect)
Description: as §4, with “concentration. 1×10^5 cells were dispensed into each well of 6-well plate. When 70% of cells were confluent, cells were treated with MDI medium (differentiation medium) and each sample at the same time, then incubated for 48 hours. On the 8th day after differentiation, the content of neutral lipids was measured with Oil red O staining. The results are represented in FIG. 6.” for “concentration.”

Organ Weight: Heart [4] | Organ Weight: Kidney [4] | Organ Weight: Liver [4] | Compound | Amount of leptin secretion decreased compared with the control group [1] | Content of neutral lipids in liver tissue [2] | Content of total cholesterol in liver tissue [2] | Content of serum neutral lipid (triglyceride, TG) [3] | Serum total cholesterol (TC) ([3]; vs HFD group) | Serum low density lipid (LDL) ([3]; vs HFD group, calculated by Friedewald method) | Weight of epididymal white adipose tissue and perirenal white adipose tissue per unit body weight ([4]; vs HFD group, FIG. 10) | Body weight in the 5th week ([5]; 5th week, FIG. 9) | Body Weight Gain ([5]; 5 weeks) | FER (food efficiency ratio) = body weight gain/food intake ([5]; 5 weeks) | Food Intake ([5]; 5 weeks) | Body weight change during the experiment period ([5]; weeks 2 onward, vs HFD group, FIG. 9) | Content of glycerol (secretion of glycerol, lipolysis) [6] | Content of neutral lipids (lipolysis effect) [7] | Cell viability [8] | inhibition at 10 µg/mL [9]
2.43 ± 0.17 mg/g B.W. | 5.35 ± 0.24 mg/g B.W. | 44.69 ± 2.57 mg/g B.W. | conjugated linoleic acid [CLA] | 8.3% | statistically significant decrease compared with the HFD group | statistically significant decrease compared with the HFD group | lower than HFD group with statistical significance | decreased compared with the HFD group with statistical significance | decreased compared with the HFD group with statistical significance | slightly lighter than in the HFD group without statistical significance | not different from that of the HFD group with statistical significance | 2.89 ± 0.55 g/day | 0.11 ± 0.02 | 28.18 ± 0.21 g/day | lower than in the HFD group from the 2nd week to the 4th week | tendency of increasing the secretion of glycerol | tendency of decreasing neutral lipids |  | 
 |  |  | CCCCCCCCCCC[C@@H](C[C@@H]1OC(=O)[C@H]1CCCCCC)OC(=O)[C@H](CC(C)C)NC=O [Orlistat] | 11.6% |  |  |  |  |  |  |  |  |  |  |  | 1.57 µg/mL | tendency of decreasing neutral lipids | 103% | 12.5%
